Target: T1, gp16 (eGFP-gp16) (Bacillus phage phi29, UniProt P11014)
T1 sequence (P11014 1-332): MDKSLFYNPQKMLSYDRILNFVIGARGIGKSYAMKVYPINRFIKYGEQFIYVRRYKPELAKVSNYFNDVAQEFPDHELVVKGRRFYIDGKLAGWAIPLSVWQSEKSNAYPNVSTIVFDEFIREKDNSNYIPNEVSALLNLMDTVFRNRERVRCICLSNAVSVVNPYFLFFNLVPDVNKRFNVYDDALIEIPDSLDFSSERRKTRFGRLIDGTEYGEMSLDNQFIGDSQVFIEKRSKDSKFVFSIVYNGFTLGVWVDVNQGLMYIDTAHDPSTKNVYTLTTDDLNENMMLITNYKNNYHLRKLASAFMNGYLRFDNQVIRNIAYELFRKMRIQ
Assay: EMSA, release of dsDNA from gp16/dsDNA/γ-S-ATP complex
Assay type: binding
Conditions: γ-S-ATP present, Cy3-dsDNA; indirect read-out of nucleotide action

SMILES: Nc1ncnc2c1ncn2[C@@H]1O[C@H](COP(=O)(O)OP(=O)(O)O)[C@@H](O)[C@H]1O [ADP]
- EMSA, release of dsDNA from gp16/dsDNA/γ-S-ATP complex: ADP also stimulated the release of gp16 from the gp16/dsDNA complex
